# Compound: COc1nc(N)nc2c1ncn2[C@@H]1O[C@H](CO)[C@@H](O)[C@@H]1O [Nelarabine] + Cc1nc(Nc2ncc(C(=O)Nc3c(C)cccc3Cl)s2)cc(N2CCN(CCO)CC2)n1 [Dasatinib] (partner 0.075 µM)
# Experiment: relative viability (nuclei count vs DMSO), 5 days (fraction); higher = more cells survive
# Settings: first compound 0.01 µM
# Summary of the method: (§1)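 The day after seeding in 1536-well plates, lung cancer cell lines were treated by pin tool with a single drug, or with a fixed anchor-drug dose together with five library-drug doses (not always all listed) in √10 steps. After 5 days, a combined fix-and-stain solution (final 0.05% Triton X-100, 1% formaldehyde, 1 ug/ml Hoechst) was added. Nuclei counted on 4× images gave relative viability as treated counts over vehicle counts, reported as the median of duplicate plates.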
row,Cell Line,relative viability
1,NCI-H1944,0.211
2,NCI-H2170,0.61
3,NCI-H2342,0.324
4,SK-MES-1,0.385
5,SW 900,0.555

# Same assay, conditions: first compound 0.03162 µM
row,Cell Line,relative viability
1,201T,0.57
2,A-427,0.662
3,ABC-1,0.462
4,BEN,0.308
5,CAL-12T,0.484
6,COR-L23,0.442
7,COR-L 105,0.402
8,ChaGo-K-1,0.515
9,EKVX,0.468
10,EPLC-272H,0.361
11,H3255,0.427
12,HARA,0.339
13,HCC-15,0.554
14,HCC-78,0.358
15,HCC-366,0.71
16,HCC-827,0.241
17,HOP-62,0.636
18,LC-2-ad,0.647

row,Cell Line,relative viability
1,LCLC-97TM1,0.506
2,LCLC-103H,0.45
3,LOU-NH91,0.591
4,LU99A,0.506
5,NCI-H358,0.144
6,NCI-H522,0.866
7,NCI-H727,0.418
8,NCI-H1395,0.39
9,NCI-H1563,0.437
10,NCI-H1623,0.563
11,NCI-H1792,0.876
12,NCI-H1793,0.398
13,NCI-H1944,0.213
14,NCI-H2170,0.608
15,NCI-H2342,0.302
16,SK-MES-1,0.263
17,SW 900,0.439

# Same assay, conditions: first compound 0.1 µM
row,Cell Line,relative viability
1,201T,0.429
2,A-427,0.753
3,ABC-1,0.507
4,BEN,0.353
5,CAL-12T,0.16
6,COR-L23,0.502
7,COR-L 105,0.259
8,ChaGo-K-1,0.533
9,EKVX,0.396
10,EPLC-272H,0.129
11,H3255,0.367
12,HARA,0.236
13,HCC-15,0.523
14,HCC-366,0.588
15,HCC-827,0.166
16,HOP-62,0.395
17,LC-2-ad,0.463
18,LCLC-97TM1,0.779

row,Cell Line,relative viability
1,LCLC-103H,0.342
2,LK-2,0.216
3,LOU-NH91,0.436
4,LU99A,0.36
5,NCI-H358,0.148
6,NCI-H522,1.07
7,NCI-H727,0.295
8,NCI-H1395,0.413
9,NCI-H1563,0.427
10,NCI-H1623,0.51
11,NCI-H1792,0.627
12,NCI-H1793,0.416
13,NCI-H1944,0.196
14,NCI-H2170,0.491
15,NCI-H2342,0.282
16,SK-MES-1,0.172
17,SW 900,0.524

# Same assay, conditions: first compound 0.3162 µM
row,Cell Line,relative viability
1,201T,0.577
2,A-427,0.736
3,ABC-1,0.548
4,BEN,0.386
5,CAL-12T,0.51
6,COR-L23,0.543
7,COR-L 105,0.351
8,ChaGo-K-1,0.707
9,EKVX,0.575
10,EPLC-272H,0.401
11,H3255,0.345
12,HARA,0.329
13,HCC-15,0.639
14,HCC-78,0.459
15,HCC-366,0.79
16,HCC-827,0.295
17,HOP-62,0.764
18,LC-2-ad,0.529

row,Cell Line,relative viability
1,LCLC-97TM1,0.95
2,LCLC-103H,0.499
3,LK-2,0.352
4,LOU-NH91,0.585
5,LU99A,0.51
6,NCI-H358,0.145
7,NCI-H522,0.801
8,NCI-H727,0.249
9,NCI-H1395,0.408
10,NCI-H1563,0.42
11,NCI-H1623,0.559
12,NCI-H1792,0.95
13,NCI-H1793,0.426
14,NCI-H1944,0.185
15,NCI-H2170,0.697
16,NCI-H2342,0.346
17,SK-MES-1,0.324
18,SW 900,0.623

# Same assay, conditions: first compound 1 µM
row,Cell Line,relative viability
1,201T,0.625
2,A-427,0.789
3,ABC-1,0.545
4,BEN,0.298
5,CAL-12T,0.482
6,COR-L23,0.402
7,COR-L 105,0.319
8,ChaGo-K-1,0.568
9,EKVX,0.608
10,EPLC-272H,0.29
11,H3255,0.309
12,HARA,0.436
13,HCC-15,0.67
14,HCC-78,0.37
15,HCC-366,0.661
16,HCC-827,0.361
17,HOP-62,0.738
18,LC-2-ad,0.611

row,Cell Line,relative viability
1,LCLC-97TM1,0.806
2,LCLC-103H,0.471
3,LK-2,0.266
4,LOU-NH91,0.605
5,LU99A,0.797
6,NCI-H358,0.154
7,NCI-H522,0.993
8,NCI-H727,0.44
9,NCI-H1395,0.408
10,NCI-H1563,0.406
11,NCI-H1623,0.517
12,NCI-H1792,0.846
13,NCI-H1793,0.409
14,NCI-H1944,0.194
15,NCI-H2170,0.614
16,NCI-H2342,0.29
17,SK-MES-1,0.301
18,SW 900,0.639

# Compound: COc1nc(N)nc2c1ncn2[C@@H]1O[C@H](CO)[C@@H](O)[C@@H]1O [Nelarabine] + O=C(CCCCCCC(=O)Nc1ccccc1)NO [Vorinostat] (partner 1 µM)
# Experiment: as above
# Settings: first compound 0.01 µM
# Summary of the method: as §1
row,Cell Line,relative viability
1,201T,1.2
2,A-427,0.856
3,ABC-1,1.24
4,BEN,0.662
5,CAL-12T,0.987
6,COR-L23,0.471
7,COR-L 105,0.805
8,ChaGo-K-1,0.972
9,EKVX,0.81
10,EPLC-272H,0.313
11,H3255,0.904
12,HARA,0.658
13,HCC-15,1.1
